According to paper PMC3376857 (2012):

Target: HDAC1 (Homo sapiens, UniProt Q13547)
Sequence (Q13547 whole entry): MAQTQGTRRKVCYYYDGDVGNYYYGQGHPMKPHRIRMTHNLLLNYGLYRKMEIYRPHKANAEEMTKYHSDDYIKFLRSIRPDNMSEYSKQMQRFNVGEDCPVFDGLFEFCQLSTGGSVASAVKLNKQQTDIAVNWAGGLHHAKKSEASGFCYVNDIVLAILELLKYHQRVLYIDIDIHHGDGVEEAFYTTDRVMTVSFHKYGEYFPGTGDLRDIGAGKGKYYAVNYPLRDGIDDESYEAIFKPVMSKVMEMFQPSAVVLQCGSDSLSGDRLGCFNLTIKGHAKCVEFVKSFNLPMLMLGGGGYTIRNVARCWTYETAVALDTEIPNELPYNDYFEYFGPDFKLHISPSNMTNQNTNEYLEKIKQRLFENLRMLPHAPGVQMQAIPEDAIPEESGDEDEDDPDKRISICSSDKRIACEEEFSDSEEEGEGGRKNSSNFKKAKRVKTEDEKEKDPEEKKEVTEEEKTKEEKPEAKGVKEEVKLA

deacetylase assay with immunopurified Flag-HDAC1 and acetylated p53 protein: 1 µM
SMILES: CC(/C=C/C(=O)NO)=C\[C@@H](C)C(=O)c1ccc(N(C)C)cc1 [TSA, trichostatin A]
